Assay results published in EP4722213A1, “NITROGEN-CONTAINING FUNCTIONAL GROUP-SUBSTITUTED PYRIDAZINOPYRIDONE DERIVATIVE AND USE THEREOF” (Sichuan Huiyu Pharmaceutical Co., Ltd., priority 2023, dated 2024).
Like-named read-outs stand apart in the source and are kept apart here.

How the values were obtained:
[1] = target: T1, CYP2C9 (Homo sapiens, UniProt P11712); assay: Inhibition of hepatic drug-metabolizing enzymes in human liver microsomes; assay type: in vitro ADME; settings: human liver microsomes; read-out: Inhibitory activity on drug-metabolizing enzymes (IC50, µM) CYP2C9
T1 construct: human liver microsomes were used as the CYP450 enzyme source; from tissue; host or cells: human liver microsomes
T1 sequence (P11712 whole entry): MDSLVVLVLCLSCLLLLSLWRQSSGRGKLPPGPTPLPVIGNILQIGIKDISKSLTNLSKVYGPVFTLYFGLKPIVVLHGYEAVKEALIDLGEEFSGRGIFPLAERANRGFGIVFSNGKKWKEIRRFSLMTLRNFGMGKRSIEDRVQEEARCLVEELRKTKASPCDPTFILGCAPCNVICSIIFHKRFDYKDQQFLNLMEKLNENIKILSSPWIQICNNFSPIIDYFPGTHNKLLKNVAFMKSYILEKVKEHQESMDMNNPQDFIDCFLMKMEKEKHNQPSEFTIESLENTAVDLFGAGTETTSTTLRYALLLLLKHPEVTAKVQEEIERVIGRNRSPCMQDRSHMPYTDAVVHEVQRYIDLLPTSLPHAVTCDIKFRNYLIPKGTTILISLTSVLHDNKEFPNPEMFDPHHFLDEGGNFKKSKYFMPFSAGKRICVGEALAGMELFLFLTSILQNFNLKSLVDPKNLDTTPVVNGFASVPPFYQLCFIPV
Description: (§1) The main site of drug metabolism is the liver, and the main component of the mixed-function oxidase system present in the liver is the CYP450 enzyme. This enzyme system causes most clinically observed drug-drug interactions, which in turn leads to an increased incidence of adverse drug reactions. CYP450 is a group of supergene family composed of many isozymes, wherein CYP3A4 acts as a major metabolizing enzyme and is involved in the metabolism of nearly half of clinically used drugs. Similarly, CYP2C9 and CYP2C19 also act as important metabolizing enzymes and are involved in the metabolism of various drugs clinically. Therefore, evaluating the risk of drug-drug interactions by testing the inhibitory activity of compounds on CYP450 enzymes at an early stage can improve the safety of medication use.
(§2) In the present disclosure, human liver microsomes were used as the CYP450 enzyme source. The specific probe substrates for each CYP isoenzyme (wherein CYP3A4 used two substrates, midazolam and testosterone, denoted as CYP3A4-M and CYP3A4-T respectively) were incubated with a series of concentrations of the test compound in the presence of the cofactor NADPH. The production amount of metabolites of probe substrates in the incubation system was determined by LC-MS/MS, and the IC50 values of the test compound against each CYP450 enzyme subtype were calculated to evaluate its inhibitory effect on each CYP450 enzyme subtype. During the experiment, 49 µL of PBS, 50 µL of probe substrate, and 50 µL of human liver microsome working solution were sequentially added to the incubation system, followed by the addition of 1 µL of the test compound working solution at each concentration, and the mixture was mixed well. After pre-incubation at 37°C for 5 min, 50 µL of NADPH was added to initiate the reaction. After incubation for the corresponding time, an appropriate amount of ice-cold acetonitrile containing an internal standard was added to terminate the reaction. The mixture was vortexed to mix well, centrifuged, and the supernatant was taken. The supernatant was injected into LC-MS/MS to determine the production amount of metabolites of the probe substrate. Taking the enzyme activity at the 0-concentration point (characterized by the production amount of metabolites) as 100%, the percentage of residual enzyme activity of metabolites at different concentrations of the test compound was calculated. IC50 was calculated by the residual enzyme activity using Graphpad Prism software.

[2] = target: T2, CYP2C19 (Homo sapiens, UniProt P33261); assay: as above; assay type: in vitro ADME; settings: human liver microsomes; read-out: Inhibitory activity on drug-metabolizing enzymes (IC50, µM) CYP2C19
T2 construct: human liver microsomes were used as the CYP450 enzyme source; from tissue; host or cells: human liver microsomes
T2 sequence (P33261 whole entry): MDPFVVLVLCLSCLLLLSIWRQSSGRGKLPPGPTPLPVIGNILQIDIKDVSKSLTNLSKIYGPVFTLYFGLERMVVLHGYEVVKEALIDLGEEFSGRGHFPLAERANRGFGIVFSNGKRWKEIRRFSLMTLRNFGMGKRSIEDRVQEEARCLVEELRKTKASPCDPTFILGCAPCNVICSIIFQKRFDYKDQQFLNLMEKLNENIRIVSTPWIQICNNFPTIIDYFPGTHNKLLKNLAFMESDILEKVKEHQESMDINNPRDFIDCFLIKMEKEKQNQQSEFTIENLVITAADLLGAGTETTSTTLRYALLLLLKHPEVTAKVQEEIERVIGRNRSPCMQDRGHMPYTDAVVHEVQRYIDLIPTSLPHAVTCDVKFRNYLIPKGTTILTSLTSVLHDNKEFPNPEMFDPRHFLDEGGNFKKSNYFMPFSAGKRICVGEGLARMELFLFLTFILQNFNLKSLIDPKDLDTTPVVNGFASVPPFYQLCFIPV
Description: as §1, §2

[3] = target: T3, SOS1 (Homo sapiens, UniProt Q07889); assay: biochemical
T3 sequence (Q07889 1-1333): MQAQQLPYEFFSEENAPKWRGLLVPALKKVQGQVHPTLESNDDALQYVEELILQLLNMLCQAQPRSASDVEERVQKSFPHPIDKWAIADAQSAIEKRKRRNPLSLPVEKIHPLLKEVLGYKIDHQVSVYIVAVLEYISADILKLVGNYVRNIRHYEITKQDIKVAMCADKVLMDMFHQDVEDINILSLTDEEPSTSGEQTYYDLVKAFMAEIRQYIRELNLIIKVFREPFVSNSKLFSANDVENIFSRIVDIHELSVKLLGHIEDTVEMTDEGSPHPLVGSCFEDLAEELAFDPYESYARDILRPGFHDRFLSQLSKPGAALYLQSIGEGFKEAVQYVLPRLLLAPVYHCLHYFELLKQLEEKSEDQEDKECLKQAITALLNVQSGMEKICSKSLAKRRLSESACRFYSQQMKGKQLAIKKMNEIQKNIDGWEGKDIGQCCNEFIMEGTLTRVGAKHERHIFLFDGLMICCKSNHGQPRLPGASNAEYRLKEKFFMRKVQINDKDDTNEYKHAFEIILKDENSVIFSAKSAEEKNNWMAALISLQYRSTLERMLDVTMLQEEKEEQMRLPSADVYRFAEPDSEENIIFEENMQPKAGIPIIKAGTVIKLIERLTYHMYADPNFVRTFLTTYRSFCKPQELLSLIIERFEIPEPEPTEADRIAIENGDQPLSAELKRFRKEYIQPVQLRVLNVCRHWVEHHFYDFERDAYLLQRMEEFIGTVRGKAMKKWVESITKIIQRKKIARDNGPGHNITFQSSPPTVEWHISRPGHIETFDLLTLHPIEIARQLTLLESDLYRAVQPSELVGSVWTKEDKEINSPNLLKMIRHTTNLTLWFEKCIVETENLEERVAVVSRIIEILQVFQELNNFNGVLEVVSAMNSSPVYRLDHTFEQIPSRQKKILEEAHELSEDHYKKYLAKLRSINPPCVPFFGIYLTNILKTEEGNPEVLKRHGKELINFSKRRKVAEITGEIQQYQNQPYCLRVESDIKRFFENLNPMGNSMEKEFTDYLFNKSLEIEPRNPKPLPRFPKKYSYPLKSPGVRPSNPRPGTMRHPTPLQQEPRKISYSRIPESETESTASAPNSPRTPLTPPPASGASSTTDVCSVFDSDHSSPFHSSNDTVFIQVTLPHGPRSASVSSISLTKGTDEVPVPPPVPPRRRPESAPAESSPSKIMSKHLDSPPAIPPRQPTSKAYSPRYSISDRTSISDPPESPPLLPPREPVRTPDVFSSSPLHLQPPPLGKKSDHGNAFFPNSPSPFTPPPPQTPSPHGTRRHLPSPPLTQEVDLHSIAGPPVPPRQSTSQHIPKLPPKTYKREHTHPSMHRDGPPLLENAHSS

[4] = Rat liver microsomal metabolic stability; assay type: in vitro ADME; settings: rat liver microsomes; for half-life at 1 µM: NADPH, 37°C; for CLint scaled at 1 µM: calculated from T1/2, fu defaulted to 1, read-out: CL(liver)
Description: Metabolic stability affects the clearance rate, half-life, and oral bioavailability of compounds in the body, and is one of the most important ADME drug-like properties of compounds. Hepatocyte microsomal stability assay is a commonly used method for studying metabolic stability. In the present disclosure, rat liver microsomes are used to determine and investigate the metabolic stability of compounds.
Preparation of compound stock solution: an appropriate amount of the test compound and testosterone was taken, and a 1 mM stock solution was prepared with DMSO, which was stored in a refrigerator at 4°C.
Preparation of compound working solution: The 1 mM compound stock solution was taken respectively, and then diluted to 100 µM with acetonitrile-water (v:v = 1:1) to obtain the working solution.
Preparation of NADPH working solution: an appropriate amount of NADPH was weighed and dissolved in 16 mM MgCl2 to prepare a NADPH working solution with a concentration of 4.0 mM.
Preparation of rat liver microsome working solution: an appropriate amount of rat liver microsomes was taken and diluted with PBS to obtain a liver microsome working solution with a concentration of 1 mg/mL.
In the incubation system, 48 µL of PBS, 100 µL of rat liver microsome working solution, and 2 µL of the test compound working solution were sequentially added and mixed well. After pre-incubation at 37°C for 5 min, 50 µL of NADPH was added to initiate the reaction. After incubation for the corresponding time points, an appropriate amount of ice-cold acetonitrile containing an internal standard was added to terminate the reaction. The mixture was vortexed to mix well, centrifuged, and the supernatant was collected. The supernatant was injected into LC-MS/MS for detection of the residual metabolic amount of the compound.
Softwares of Excel, etc. were used for data processing according to the following formula. Ct = C0 •e^(−ke •t) [formula] when Ct = (1)/(2)C0 [formula] , T1/2 = (Ln2)/(ke) = (0.693)/(ke) [formula] CLint(mic) = (0.693)/(In vitro T1/2)•(1)/(mg/mL microsomal protein in reaction system) [formula] CLint(liver) = CLint(mic) •(mg microsomes)/(g liver)•(g liver)/(kg body weight) [formula] CL(liver) = (CLint(liver)×fu×Qh)/(CLint(liver)×fu+Qh) [formula] fu (unbound fraction in blood) was defaulted to be 1.

[5] = target: T4, CYP3A4 (Homo sapiens, UniProt P08684); assay: Inhibition of hepatic drug-metabolizing enzymes in human liver microsomes (substrates midazolam and testosterone); assay type: in vitro ADME
T4 construct: human liver microsomes were used as the CYP450 enzyme source; from tissue; host or cells: human liver microsomes
T4 sequence (P08684 whole entry): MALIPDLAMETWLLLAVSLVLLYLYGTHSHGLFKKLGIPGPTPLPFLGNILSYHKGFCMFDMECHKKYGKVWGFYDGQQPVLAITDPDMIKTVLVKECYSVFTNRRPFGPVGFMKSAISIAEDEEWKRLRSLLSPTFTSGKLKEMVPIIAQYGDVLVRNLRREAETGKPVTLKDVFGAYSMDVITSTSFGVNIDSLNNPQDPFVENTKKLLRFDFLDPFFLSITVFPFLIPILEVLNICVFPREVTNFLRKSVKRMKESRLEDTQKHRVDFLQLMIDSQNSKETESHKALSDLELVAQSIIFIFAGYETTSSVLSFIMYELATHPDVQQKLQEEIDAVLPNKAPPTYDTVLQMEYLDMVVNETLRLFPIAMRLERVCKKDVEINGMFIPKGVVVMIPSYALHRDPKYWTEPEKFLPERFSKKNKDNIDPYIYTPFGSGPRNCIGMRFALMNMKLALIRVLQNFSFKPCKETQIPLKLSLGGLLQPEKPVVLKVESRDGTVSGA
Description: as §1, §2

[6] = test system: NCI-H358 non-small cell lung cancer cells; assay: Inhibition of NCI-H358 cell proliferation (CellTiter-Glo 3D, 7 days); assay type: cell-based; settings: Homo sapiens, NCI-H358, 168 h, 3D microspheres, read-out: Inhibitory activity against NCI-H358 cell proliferation (IC50)
Procedure: The number of viable cells were detected by CellTiter-Glo 3D® reagent, thereby evaluating the inhibitory effect of compounds on cell proliferation. NCI-H358 non-small cell lung cancer cells (Nanjing cobioer) in the exponential growth phase were digested with trypsin-EDTA, and seeded into 96-well ultra-low attachment microplates at 100 µL per well with a density of 2000 cells/well. The cells were cultured overnight at 37°C with 5% CO2 to form microspheres. The test compounds were serially diluted 5-fold with DMSO to obtain 8 concentration gradient dilutions, then diluted with RPMI-1640 (10% FBS) cell culture medium respectively to obtain compound working solutions (2×). 100 µL per well was added to the cell supernatant, and the culture was continued for 7 days under the conditions of 37°C and 5% CO2. The well plate was removed, and 100 µL of CellTiter-Glo 3D® reagent was added. After lysis at room temperature for 10-30 minutes, 70 µL of the lysate was aspirated and transferred to a white opaque 384-well plate.
The inhibition rate was calculated by the following formula: [formula] Note: The negative control refers to the group without inhibitor, and the blank refers to the group without cells.
The inhibitory activities of some Example compounds and comparative compounds against NCI-H358 cell proliferation are shown in Table 2. Table 2. Inhibitory activity of some Example compounds against NCI-H358 cell proliferation

[7] = substrate midazolam, read-out: Inhibitory activity on drug-metabolizing enzymes (IC50, µM) CYP3A4-M
[8] = substrate testosterone, read-out: Inhibitory activity on drug-metabolizing enzymes (IC50, µM) CYP3A4-T

Structure (SMILES): CNc1nnc(N[C@H](C)c2cccc(C(F)F)c2F)c2cn(C3CC3)c(=O)cc12 [Example 13, (R)-6-cyclopropyl-4-((1-(3-(difluoromethyl)-2-fluorophenyl)ethyl)amino)-1-(methylamino)pyrid o[3,4-d]pyridazin-7(6H)-one]
- IC50 [1]: > 10 µM
- IC50 [2]: > 10 µM
- IC50 [3]: 0.0046 µM
- half-life at 1 µM [4]: 3.97 h
- CLint scaled at 1 µM [4]: 8.8 mL/min/kg
- IC50 [5, 7]: > 10 µM
- IC50 [5, 8]: > 10 µM

Structure (SMILES): C[C@@H](Nc1nnc(N)c2cc(=O)n(C3CC3)cc12)c1cccc(C(F)F)c1F [Example 75, (R)-1-amino-6-cyclopropyl-4-((1-(3-(difluoromethyl)-2-fluorophenyl)ethyl)amino)pyrido[3,4-d]pyridazin-7(6H)-one]
- IC50 [1]: > 10 µM
- IC50 [2]: > 10 µM
- IC50 [3]: 0.0048 µM
- half-life at 1 µM [4]: > 5 h
- CLint scaled at 1 µM [4]: < 7.23 mL/min/kg
- IC50 [5, 7]: > 10 µM
- IC50 [5, 8]: > 10 µM

Structure (SMILES): C[C@@H](Nc1nnc(N)c2cc(=O)n(C3(C)CC3)cc12)c1cccc(C(F)F)c1F.O=CO [Example 74, (R)-1-amino-4-((1-(3-(difluoromethyl)-2-fluorophenyl)ethyl)amino)-6-(1-methylcyclopropyl) pyrido[3,4-d]pyridazin-7(6H)-one formate]
- IC50 [1]: > 10 µM
- IC50 [2]: > 10 µM
- IC50 [3]: 0.0046 µM
- half-life at 1 µM [4]: > 5 h
- CLint scaled at 1 µM [4]: < 7.23 mL/min/kg
- IC50 [5, 7]: > 10 µM
- IC50 [5, 8]: > 10 µM

Structure (SMILES): C[C@@H](Nc1nnc(N2CCN(C3CCC3)CC2)c2cc(=O)n(C3(C)CC3)cc12)c1cccc(C(F)F)c1F [Example 220, (R)-1-(4-cyclobutylpiperazin-1-yl)-4-((1-(3-(difluoromethyl)-2-fluorophenyl)ethyl)amino)-6-(1-methylcyclopropyl) pyrido[3,4-d]pyridazin-7(6H)-one]
- IC50 [6]: 0.0567 µM
- IC50 [3]: 0.004 µM
- half-life at 1 µM [4]: 1.34 h
- CLint scaled at 1 µM [4]: 19.9 mL/min/kg
